# Values quoted from earlier work, collected in US12090168B2, “Glucose glycans for treating urea cycle disorders” (DSM Nutritional Products, LLC, priority 2017, dated 2024).
# Settings: administered in combination with lactulose
structure (smiles),measurement,value
CO[C@H]1/C=C/O[C@@]2(C)Oc3c(C)c(O)c4c(O)c(c5c(nc6cc(C)ccn65)c4c3C2=O)NC(=O)/C(C)=C\C=C\[C@H](C)[C@H](O)[C@@H](C)[C@@H](O)[C@@H](C)[C@H](OC(C)=O)[C@@H]1C [rifaximin],reduction of episodes of OHE,approximately 50%
